Laboratory results published in publication PMC5049785, “Characterization of Novel Antimalarial Compound ACT-451840: Preclinical Assessment of Activity and Dose–Efficacy Modeling” (PLoS Medicine, 2016).
Entries after “also recorded” stand apart in the source; their conditions may differ. Read-outs that look alike come from different tables or passages of the source.

Assays:
[1] = system: P. falciparum NF54 strain; assay: [3H]-hypoxanthine incorporation assay, NF54; format: cell-based, Plasmodium falciparum; details: mean ± SD
Procedure: (§1) In vitro time-, stage-, and concentration-dependent effects were assessed using pyrimethamine as a stage-specific and slow-acting control, as described elsewhere.

[2] = system: P. falciparum 7G8 (Brazil); assay: [3H]-hypoxanthine incorporation assay, 7G8; format: cell-based, Plasmodium falciparum; details: read-out: 50% inhibitory concentration (IC50); 7G8, resistance CQ, PYR, CYC; mean ± SD
[3] = system: P. falciparum TM90C2A (Thailand); assay: [3H]-hypoxanthine incorporation assay, TM90C2A; format: cell-based, Plasmodium falciparum; details: read-out: 50% inhibitory concentration (IC50), resistance CQ, PYR, MFQ, CYC, mean ± SD
[4] = system: P. falciparum strain 3D7 (MR4); assay: In vitro parasite reduction ratio (PRR) assay; format: cell-based, Plasmodium falciparum
Procedure: In vitro PRR testing was conducted at GSK (Tres Cantos, Madrid, Spain) as previously described. The assay used the limiting dilution technique to quantify the number of parasites that remained viable after drug treatment. […] Parasites were treated for 120 h. Drug in culture medium was renewed daily over the entire treatment period. […] To quantify the number of viable parasites after treatment, 3-fold serial dilutions were used with the above mentioned samples after removing the drug. Four independent serial dilutions were performed with each sample to correct experimental variations. The number of viable parasites was determined after 21 and 28 d by counting the number of wells with growth using [^3H]-hypoxanthine incorporation. The number of viable parasites was back-calculated by using the formula X^n-1 where n is the number of wells able to render growth and X the dilution factor (when n = 0, number of viable parasites is estimated as zero). […] The parasite clearance time to kill 99.9% of the initial population was determined using a regression calculated on the log-linear phase of the parasite reduction, taking into account the lag phase.

[5] = system: synchronous cultures of P. falciparum NF54; assay: In vitro time-, stage- and concentration-dependent effects; format: cell-based, Plasmodium falciparum; details: 6 or 24 h exposure
Procedure: as §1

[6] = system: P. falciparum PfNF54^0230/N3; assay: In vivo efficacy, P. falciparum mouse model (GSK)
Procedure: In vivo efficacy against P. falciparum was conducted at GSK according to the standard assay previously described. Female NODscidIL2Rγnull mice were engrafted with human erythrocytes and infected with the isolate P. falciparum PfNF54^0230/N3, a strain developed at GSK for growth in engrafted mice. […] Blood samples were collected on Days 3, 4, 5, 6, and 7 (n = 3 per time point) for parasitemia measurement by flow cytometry. Similarly, blood samples were collected at 0.5, 1, 2, 4, 6, 8, 12, 24, and 48 h after a single administration of 4.7 mg/kg of ACT-451840 to a parallel group of three P. falciparum-infected mice for PK parameters determination. Results are expressed exclusively as antimalarial activity in the P. falciparum murine model.

[7] = system: P. falciparum NF54 female gametocytes; assay: P. falciparum dual gamete formation assay, female; format: cell-based, Plasmodium falciparum; details: up to a concentration of 20 μM, 24 h incubation
Procedure: Mature P. falciparum NF54 gametocytes were cultured at Imperial College London (London, United Kingdom), as previously described. […] Male gamete formation was quantified by computer-aided automated identification and counting of exflagellation centers. Female gamete formation was visualized by live immunofluorescence with a Cy3-conjugated antibody specific for Pfs25—a female gamete expressed surface protein. […] IC50 values were calculated using GraphPad Prism version 6 using the logarithmic versus normalized response (variable slope) function (Graphpad Software, San Diego, US).

[8] = system: P. falciparum stage V gametocytes / oocysts in Anopheles stephensi; assay: Standard membrane feeding assay, indirect mode; format: cell-based, Plasmodium falciparum; details: 24 h pre-exposure of gametocytes
Procedure: ACT-451840 was tested in the standard membrane feeding assay at TropIQ (Nijmegen, The Netherlands) in two modes, as previously described. In the direct mode, the compound was directly added to a bloodmeal containing mature stage V gametocytes that was fed to Anopheles stephensi mosquitoes. […] Seven days after the bloodmeal, the number of oocysts in the midgut was determined by microscopy for both modes. […] Vehicle control (0.1% DMSO) and positive control (10 μM dihydroartemisinin) were included. Twenty mosquitoes were dissected per sample, and oocyst load was analyzed per mosquito.

[9] = Pharmacokinetic study in healthy mice; format: in vivo, female NMRI mice
Procedure: Female NMRI mice were purchased from Harlan (Horst, The Netherlands) by Actelion Pharmaceuticals. ACT-451840 was formulated as a solution in corn oil and dosed via oral gavage at 10, 100, and 300 mg/kg. Serial blood samples were collected at 0.5, 2, 4, and 8 h after dosing from two mice and after 1, 3, 6, and 24 h from two other mice, creating composite PK profiles from, in total, four mice per dose. Blood samples were analyzed using liquid chromatography coupled to tandem mass spectrometry (LC-MS/MS) after protein precipitation. PK parameters were estimated using non-compartmental analysis from the composite profiles.

[10] = Safety pharmacology in rats; format: in vivo; details: rats dosed up to 1,000 mg/kg
[11] = Safety pharmacology in dogs; format: in vivo; details: dogs dosed up to 500 mg/kg
[12] = General oral toxicity study up to 4 wk, dogs; format: in vivo
[13] = system: P. falciparum; assay: Prediction of human efficacious exposure
Description: In this PK/PD approach, the robust endpoint of animal survival and cure were chosen for clinical relevance. […] The alternative approach used to assess efficacious concentrations in vivo calculated the minimum inhibitory concentration and estimated a minimum parasiticidal concentration from modeling of the exposure–efficacy in the P. falciparum murine model.

[14] = in vivo
[15] = cited from earlier work
[16] = single oral 10 mg/kg in corn oil
[17] = single oral 100 mg/kg in corn oil
[18] = single oral 300 mg/kg in corn oil

What does the source list for `CC(=O)N1CCN(c2ccc(CN(C(=O)/C=C/c3ccc(C(C)(C)C)cc3)[C@@H](Cc3ccccc3)C(=O)N3CCN(Cc4ccc(C#N)cc4)CC3)cc2)CC1` [ACT-451840]?
IC90 ([1]; NF54, n ≥ 3): 0.6 nM; IC99 ([1]; NF54, n ≥ 3): 1.2 ± 0.0 nM; IC50 ([1]; read-out: 50% inhibitory concentration (IC50), NF54, no resistance, n = 3): 0.4 nM; IC50 [2]: 0.3 ± 0.1 nM; IC50 [3]: 1 ± 0.3 nM; lag phase in the killing curve ([4]; 10 x IC50): without lag phase; parasite clearance time to kill 99.9% of the initial population ([4]; 10 x IC50): 28 h; log PRR ([4]; 10 x IC50, decrease in viable parasites over 48 h): 4.4; PRR ([4]; asexual blood stage forms): > 4 log per parasite cycle; stage specificity of growth reduction [5]: affected all asexual erythrocytic stages equally; total AUC in blood corresponding to the ED90 ([6]; P. falciparum mouse model, quadruple-dose regimen […], linearly extrapolated from single dose of 4.7 mg/kg): 227 ng·h/mL; effective dose resulting in 90% antimalarial activity (ED90) ([6]; oral quadruple-dose regimen, once a day): 3.7 mg/kg; effect on functional viability of female gametocytes (Pfs25 expression) [7]: no activity; also recorded: no effect; IC50 ([8]; oocysts counted 7 d after bloodmeal, read-out: IC50 oocyst development in the mosquito (oocyst intensity)): 30 nM; IC50 ([8]; read-out: IC50 prevalence of infection (number of infected mosquitoes)): 104 nM; AUC (ng/mL*h) [9, 16]: 1,780 ± 18%; Cmax (ng/mL) [9, 16]: 415 ± 20%; Tmax [9, 16]: 2.5 h; AUC (ng/mL*h) [9, 17]: 32,900 ± 36%; Cmax (ng/mL) [9, 17]: 3,910 ± 20%; Tmax [9, 17]: 6 h; AUC (ng/mL*h) [9, 18]: 60,900 ± 33%; Cmax (ng/mL) [9, 18]: 7,010 ± 32%; Tmax [9, 18]: 7 h; effects on central nervous and respiratory parameters [10]: no effects; effect on cardiovascular parameters [11]: no effect; no-observed-adverse-effect level ([12]; oral): 100 mg/kg/day; local gastrointestinal toxicity ([12]; oral up to 1,000 mg/kg/day): no evidence of local gastrointestinal toxicity; efficacious human total AUC, expressed in mouse blood ([13]; 227 x 23): 5,250 ng*h/mL; predicted total efficacious human plasma AUC ([13]; corrected for blood/plasma ratio of 0.6): 8,750 ng*h/mL; time for which the threshold of […] would be covered ([13]; single dose of 500 mg, fed state, healthy subjects): 72 h; genotoxicity, micronucleus test [14]: not genotoxic; exposure (AUC) observed in humans ([15]; single 500 mg dose, fed human subjects): 1,408 ng*h/mL; terminal half-life ([15]; single ascending dose study): 34 h; tolerability ([15]; single ascending dose, first-in-man study in healthy male participants): well tolerated
